According to US20250051391A1, “PEPTIDE INHIBITORS AND METHODS FOR INHIBITING PROTEIN AGGREGATION IN NEURONS AND NEURODEGENERATIVE DISEASES” (THE GOVERNING COUNCIL OF THE UNIVERSITY OF TORONTO, priority 2021, published 2025):
Ends that are not written are not given here.

How the values were obtained:
[1] = tested on: HEK293 cells overexpressing A53T a-syn; test: Cytotoxicity screen of lentiviral 7-mer peptide library, Alpha syn A53T cells under MG132; format: cell-based, human
Source text: (§1) A screening system to discover candidate peptides to perturb endogenous PPIs based on libraries of short linear interaction motifs that mediate a large fraction (˜30%) of human PPIs (10-12) was recently developed. Here, a lentiviral library of 50,549 7-mer peptide motifs (13) on a green fluorescent protein (GFP) scaffold (FIG. 1A) was used. Cells in a pooled format were infected and the amino acid sequence of each peptide served as its own barcode. By using a low multiplicity of infection followed by puromycin selection, each infected cell expressed one unique GFP-peptide. Peptides that reduced a-syn-mediated cytotoxicity or a-syn oligomers in parallel (FIG. 1A), were screened for.
(§2) To cause cytotoxicity relevant to PD, proteostatic stress in HEK293 cells was induced by inhibiting the proteasome with MG132 and inducing the overexpression of human a-syn (WT) from idiopathic PD in one screen and the more toxic A53T mutant from familial PD in a second screen. The combination of a-syn overexpression and pharmacological proteasome inhibition led to death of most cells, with only those that expressed a protective peptide surviving. By extracting genomic DNA from the surviving cells and amplifying the peptide coding sequences, the protective peptides (FIG. 1A) were identified.
(§3) PCR primers that included the Illumina adaptor sequences were used to amplify peptide coding sequences recovered from selection and cell sorting. Results were demultiplexed, and peptide counts were tallied. After demultiplexing, only reads with an average quality Phred score of >30 were selected, and frequencies were calculated. Finally, the reads were then normalized to the total number of peptides read for that sample population, and a scalar factor was applied. In parallel, ˜25 individual colonies were Sanger sequenced to compare to the NGS data.
(§4) Lentiviruses were made in a 15 cm dish format by transfecting packaging cells (293T) with a three-plasmid system as previously described. Viral transduction of HEK293T cells, tet-off split luciferase a-syn cells, tet-off parent cells, and SH-SY5Y cells were performed with a multiplicity of infection of 0.3 (MOI=0.3). Infected cells were selected in puromycin-containing medium to eliminate uninfected cells and three aliquots of cells were collected for sampling of the initial (TO) cell population. Cells were treated with MG132 at concentrations of 0 μM, 10 μM, 25 μM or 50 μM. For the cell viability screen, surviving cells were collected and gDNA was extracted for identification of peptide inhibitors of cell toxicity. For the inhibition of a-syn aggregation screen, split YFP-a-syn constructs were transfected following stable expression of the peptides. Cells were sorted based on their GFP fluorescence intensities with a FACSVantage SE cell sorter (BD Bioscience).
(§5) Genomic DNA (gDNA) from peptide expressing cells at different time-points was extracted using QIAamp DNA Blood Mini Kit. PCR amplifications of peptides from gDNA in parallel with the lentiviral plasmid library (naïve library) were performed using indexed Illumina PCR primers to incorporate both the Illumina adapter sequences and indexing sequences. Each 50 μl reaction contained 3.2 μg of template, 2×PCR buffer, 2× enhancer solution, 300 μM each dNTP, 900 nM each of Adapter A (5′-[…]-[…]-3′) (SEQ ID NO: 42) and Adapter B (5′-[…]-[…]-3′) (SEQ ID NO: 43), 1 mM MgSO4, 3.75 units of Platinum Pfx polymerase, and water to 50 μl. The PCR reaction was performed by denaturing at 94° C. for 5 minutes, followed by cycling (94° C. for 30 seconds, 65° C. for 30 seconds, 68° C. for 30 seconds)×28 cycles, 68° C. for 5 minutes, then cooling to 4° C. The resulting 244 bp product was purified by electrophoresis in 2% agarose followed by gel extraction. Peptide libraries were quantified using Quant-It assay (Invitrogen) and pooled. […]

[2] = tested on: HEK293 cells overexpressing human a-syn (WT); test: Cytotoxicity screen of lentiviral 7-mer peptide library, Alpha Syn (WT) cells under MG132; format: cell-based
Source text: as §1, §2, §3, §4, §5

[3] = tested on: HEK293 cells; test: Lysosome activity (lysosomal flux) assay in HEK293 cells; format: cell-based, human; conditions: HEK293 cells co-expressing A53T a-syn
Protocol: The Lysosome Intracellular Activity Assay kit was purchased from Abcam and used per manufacturer's instructions (ab234622). Briefly, cell medium was replaced with fresh medium containing DMSO, Leupeptin, or Bafilomycin A1 and incubated for 1 h at 37° C. with 5% CO2. Self-quenched substrate was added into each condition and incubated for 1 h (HEK293 cells) or overnight (SNCA triplication fibroblasts) at 37° C. with 5% CO2. After incubation, cells were washed twice in ice-cold 1× assay buffer containing DMSO, Leupeptin, or Bafilomycin A1. For HEK293 cells, cells were re-suspended in PBS containing DMSO or Leupeptin and analyzed by FACS. For fibroblasts, cells were incubated in PBS containing DMSO or Bafilomycin A1 and imaged by confocal microscopy.

[4] = normalized Illumina peptide counts, 0 uM MG132
[5] = normalized Illumina peptide counts, 10 µM MG132
[6] = normalized Illumina peptide counts, 25 µM MG132
[7] = normalized Illumina peptide counts, 50 µM MG132

With “IPIQLKA [PDpep1, top hit of all screens; maps to CHMP2B residues 203-209]” the “Slope Norm Reads” value [1] was 40.54, the “Reads 0 uM MG132” value [1, 4] was 168 and the “Reads 10 UM MG132” value [1, 5] was 20. The “Reads 25 UM MG132” value [1, 6] was 3859, the “Reads 50 UM MG132” value [1, 7] was 13308 and the “Slope Norm Reads” value [2] was 3.45. The “Reads 0 uM MG132” value [2, 4] was 90, the “Reads 10 UM MG132” value [2, 5] was 1 and the “Reads 25 UM MG132” value [2, 6] was 1629. The “Reads 50 UM MG132” value [2, 7] was 3375.
For DEEIERQLKALG [PDpep1.3], the lysosomal flux [3] was “returned lysosomal flux to baseline”.
